# Test results: publication PMC10174618, “Monoterpenoid aryl hydrocarbon receptor allosteric antagonists protect against ultraviolet skin damage in female mice” (Nature Communications, 2023)
# Experiments:
# Experiment in all cases: biochemical
# Design in all cases: KINOMEscan scanMAX active site-directed competition binding assay, percent of control, 468 kinases
# Conditions in all cases: competition binding, percent of control
# [1] = target: T1, ABL1(M351T)-phosphorylated (Homo sapiens, UniProt P00519, M351T)
# T1 construct: phosphorylated
# Method in brief: (§1)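 Single-concentration screen (100 μM S-carvone) in a competition binding panel of 468 human kinases (KINOMEscan scanMAX); results given as percent of control, hit cutoff 35%.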
# ACVR1 = ACVR1 (Homo sapiens, UniProt Q04771)
# Method in brief: as §1
# CAMK1D = CAMK1D (Homo sapiens, UniProt Q8IU85)
# Method in brief: as §1
# CLK4 = CLK4 (Homo sapiens, UniProt Q9HAZ1)
# Method in brief: as §1
# CSNK1E = CSNK1E (Homo sapiens, UniProt P49674)
# Chain of CSNK1E (P49674 whole entry): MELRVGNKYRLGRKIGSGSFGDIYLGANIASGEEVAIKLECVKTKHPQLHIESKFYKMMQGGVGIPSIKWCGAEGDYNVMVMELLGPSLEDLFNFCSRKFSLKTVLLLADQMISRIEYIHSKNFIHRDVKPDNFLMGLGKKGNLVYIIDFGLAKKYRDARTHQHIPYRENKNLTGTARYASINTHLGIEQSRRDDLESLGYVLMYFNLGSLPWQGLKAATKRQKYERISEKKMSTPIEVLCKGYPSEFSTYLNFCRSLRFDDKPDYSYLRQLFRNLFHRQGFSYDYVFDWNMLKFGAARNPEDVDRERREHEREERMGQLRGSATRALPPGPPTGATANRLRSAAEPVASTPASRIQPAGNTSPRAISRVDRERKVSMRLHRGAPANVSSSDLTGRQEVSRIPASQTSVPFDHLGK
# Method in brief: as §1
# DMPK2 = target: T2, DMPK2 (Homo sapiens, UniProt Q6DT37)
# T2 construct: gene CDC42BPG
# T2 sequence (Q6DT37 whole entry): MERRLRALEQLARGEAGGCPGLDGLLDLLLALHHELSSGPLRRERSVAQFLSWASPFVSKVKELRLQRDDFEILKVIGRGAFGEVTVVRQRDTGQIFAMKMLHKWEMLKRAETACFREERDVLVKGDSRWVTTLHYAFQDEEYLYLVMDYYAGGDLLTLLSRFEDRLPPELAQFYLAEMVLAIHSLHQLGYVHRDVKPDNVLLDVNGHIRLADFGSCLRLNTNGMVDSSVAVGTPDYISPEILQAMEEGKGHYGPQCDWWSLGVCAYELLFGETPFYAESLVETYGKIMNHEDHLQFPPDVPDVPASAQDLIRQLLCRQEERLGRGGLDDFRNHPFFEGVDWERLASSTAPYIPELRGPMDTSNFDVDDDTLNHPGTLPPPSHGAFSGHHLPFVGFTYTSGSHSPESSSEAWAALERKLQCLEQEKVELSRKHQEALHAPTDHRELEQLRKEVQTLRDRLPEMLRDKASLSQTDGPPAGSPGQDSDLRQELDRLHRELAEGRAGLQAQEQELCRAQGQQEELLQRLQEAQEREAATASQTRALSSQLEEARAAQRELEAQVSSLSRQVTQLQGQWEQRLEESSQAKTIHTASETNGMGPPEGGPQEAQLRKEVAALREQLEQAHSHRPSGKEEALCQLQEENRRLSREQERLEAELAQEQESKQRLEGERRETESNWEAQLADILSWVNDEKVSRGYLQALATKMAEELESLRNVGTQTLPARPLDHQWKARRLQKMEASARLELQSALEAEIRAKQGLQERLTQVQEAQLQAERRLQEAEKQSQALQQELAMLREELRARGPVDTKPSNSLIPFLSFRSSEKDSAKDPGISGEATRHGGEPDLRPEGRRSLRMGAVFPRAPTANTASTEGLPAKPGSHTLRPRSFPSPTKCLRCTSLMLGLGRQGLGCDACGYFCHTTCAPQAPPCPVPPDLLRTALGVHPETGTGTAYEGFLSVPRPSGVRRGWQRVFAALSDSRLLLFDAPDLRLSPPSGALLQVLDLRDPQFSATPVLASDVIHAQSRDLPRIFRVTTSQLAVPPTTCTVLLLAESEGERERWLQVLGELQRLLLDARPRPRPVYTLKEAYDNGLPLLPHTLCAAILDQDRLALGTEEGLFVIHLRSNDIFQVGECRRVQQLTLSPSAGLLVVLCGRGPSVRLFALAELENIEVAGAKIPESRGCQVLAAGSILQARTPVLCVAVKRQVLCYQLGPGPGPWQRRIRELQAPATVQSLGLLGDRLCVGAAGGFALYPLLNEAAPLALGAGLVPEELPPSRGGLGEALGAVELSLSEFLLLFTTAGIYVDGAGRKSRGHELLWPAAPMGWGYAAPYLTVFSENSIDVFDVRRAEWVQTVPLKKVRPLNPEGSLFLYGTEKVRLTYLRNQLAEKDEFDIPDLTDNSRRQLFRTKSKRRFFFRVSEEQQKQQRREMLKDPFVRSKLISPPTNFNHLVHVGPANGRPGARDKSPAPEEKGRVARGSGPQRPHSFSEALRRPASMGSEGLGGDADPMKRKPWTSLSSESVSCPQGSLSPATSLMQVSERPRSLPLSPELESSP
# Method in brief: as §1
# EGFR(L747-T751del,Sins) = EGFR(L747-T751del,Sins) (Homo sapiens, UniProt P00533, DEL747-750/T751S)
# Chain of EGFR(L747-T751del,Sins) (P00533 with tags, fused parts or gaps DEL747-750/T751S): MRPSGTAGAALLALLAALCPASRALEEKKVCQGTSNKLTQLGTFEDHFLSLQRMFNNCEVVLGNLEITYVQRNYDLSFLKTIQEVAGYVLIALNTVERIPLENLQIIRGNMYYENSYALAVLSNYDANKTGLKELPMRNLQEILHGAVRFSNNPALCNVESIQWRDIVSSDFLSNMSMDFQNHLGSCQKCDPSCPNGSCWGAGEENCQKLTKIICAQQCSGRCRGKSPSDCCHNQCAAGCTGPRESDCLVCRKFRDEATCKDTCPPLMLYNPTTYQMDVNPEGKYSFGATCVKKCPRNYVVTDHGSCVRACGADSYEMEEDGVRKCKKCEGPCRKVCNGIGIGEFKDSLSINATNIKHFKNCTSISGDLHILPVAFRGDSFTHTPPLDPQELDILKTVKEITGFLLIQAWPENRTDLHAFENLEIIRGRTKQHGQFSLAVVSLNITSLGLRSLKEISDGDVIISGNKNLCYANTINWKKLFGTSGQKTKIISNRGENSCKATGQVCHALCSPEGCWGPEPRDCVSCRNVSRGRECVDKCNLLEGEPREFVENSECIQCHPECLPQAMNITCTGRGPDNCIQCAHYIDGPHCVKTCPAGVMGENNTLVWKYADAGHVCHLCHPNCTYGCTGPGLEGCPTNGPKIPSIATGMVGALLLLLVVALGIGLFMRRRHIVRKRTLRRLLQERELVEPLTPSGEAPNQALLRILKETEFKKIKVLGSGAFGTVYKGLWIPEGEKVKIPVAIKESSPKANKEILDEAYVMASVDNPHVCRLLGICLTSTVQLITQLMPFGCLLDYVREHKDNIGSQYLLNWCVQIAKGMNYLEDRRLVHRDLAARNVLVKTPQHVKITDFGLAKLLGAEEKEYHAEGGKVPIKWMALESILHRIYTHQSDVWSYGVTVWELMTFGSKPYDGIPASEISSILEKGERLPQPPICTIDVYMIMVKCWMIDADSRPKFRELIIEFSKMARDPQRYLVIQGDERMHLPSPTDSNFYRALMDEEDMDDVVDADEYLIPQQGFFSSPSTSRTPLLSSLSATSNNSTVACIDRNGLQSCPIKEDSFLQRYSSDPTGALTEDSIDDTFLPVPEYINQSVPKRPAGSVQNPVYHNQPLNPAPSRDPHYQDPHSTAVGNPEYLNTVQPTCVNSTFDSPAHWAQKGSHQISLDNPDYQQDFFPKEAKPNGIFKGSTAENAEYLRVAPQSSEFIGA
# Method in brief: as §1
# FGFR4 = FGFR4 (Homo sapiens, UniProt P22455)
# Chain of FGFR4 (P22455 whole entry): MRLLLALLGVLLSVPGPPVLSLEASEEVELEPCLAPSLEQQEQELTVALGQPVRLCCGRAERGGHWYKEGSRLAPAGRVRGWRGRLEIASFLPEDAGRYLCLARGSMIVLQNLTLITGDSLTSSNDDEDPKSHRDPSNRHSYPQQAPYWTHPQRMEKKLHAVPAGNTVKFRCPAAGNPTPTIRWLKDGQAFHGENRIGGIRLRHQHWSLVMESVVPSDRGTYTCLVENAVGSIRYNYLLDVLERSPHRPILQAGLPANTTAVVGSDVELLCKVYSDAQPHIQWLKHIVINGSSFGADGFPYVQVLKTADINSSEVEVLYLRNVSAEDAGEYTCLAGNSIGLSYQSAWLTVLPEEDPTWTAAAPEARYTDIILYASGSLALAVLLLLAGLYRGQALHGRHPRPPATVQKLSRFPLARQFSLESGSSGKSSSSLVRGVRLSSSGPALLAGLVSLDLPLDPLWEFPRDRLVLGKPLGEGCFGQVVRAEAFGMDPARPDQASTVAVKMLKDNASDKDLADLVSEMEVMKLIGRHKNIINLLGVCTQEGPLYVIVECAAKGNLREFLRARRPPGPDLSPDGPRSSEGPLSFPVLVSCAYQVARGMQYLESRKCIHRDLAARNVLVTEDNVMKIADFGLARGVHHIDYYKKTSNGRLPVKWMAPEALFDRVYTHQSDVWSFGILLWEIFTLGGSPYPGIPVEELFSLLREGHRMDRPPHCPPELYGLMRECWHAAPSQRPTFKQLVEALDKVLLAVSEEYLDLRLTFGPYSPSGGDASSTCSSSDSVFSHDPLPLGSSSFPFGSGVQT
# Method in brief: as §1
# INSRR = INSRR (Homo sapiens, UniProt P14616)
# Method in brief: as §1
# ITK = ITK (Homo sapiens, UniProt Q08881)
# Method in brief: as §1
# MEK1 = target: T3, MEK1 (Homo sapiens, UniProt Q02750)
# T3 construct: gene MAP2K1
# T3 sequence (Q02750 whole entry): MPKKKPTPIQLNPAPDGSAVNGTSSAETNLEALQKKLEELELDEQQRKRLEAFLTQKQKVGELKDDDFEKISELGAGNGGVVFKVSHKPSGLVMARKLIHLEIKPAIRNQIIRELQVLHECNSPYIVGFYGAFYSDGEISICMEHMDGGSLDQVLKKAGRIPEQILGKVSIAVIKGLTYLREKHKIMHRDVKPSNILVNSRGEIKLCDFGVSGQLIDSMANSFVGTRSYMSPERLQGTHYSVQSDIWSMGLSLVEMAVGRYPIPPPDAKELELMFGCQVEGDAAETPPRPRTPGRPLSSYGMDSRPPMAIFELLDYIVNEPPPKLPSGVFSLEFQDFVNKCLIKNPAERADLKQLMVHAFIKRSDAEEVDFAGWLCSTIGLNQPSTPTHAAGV
# Method in brief: as §1
# MLCK = target: T4, MLCK (Homo sapiens, UniProt Q32MK0)
# T4 construct: gene MYLK3
# Method in brief: as §1
# PIK3C2G = PIK3C2G (Homo sapiens, UniProt O75747)
# Method in brief: as §1
# PIP5K2B = target: T5, PIP5K2B (Homo sapiens, UniProt P78356)
# T5 construct: gene PIP4K2B
# Method in brief: as §1
# PIP5K2C = target: T6, PIP5K2C (Homo sapiens, UniProt Q8TBX8)
# T6 construct: gene PIP4K2C
# T6 sequence (Q8TBX8 whole entry): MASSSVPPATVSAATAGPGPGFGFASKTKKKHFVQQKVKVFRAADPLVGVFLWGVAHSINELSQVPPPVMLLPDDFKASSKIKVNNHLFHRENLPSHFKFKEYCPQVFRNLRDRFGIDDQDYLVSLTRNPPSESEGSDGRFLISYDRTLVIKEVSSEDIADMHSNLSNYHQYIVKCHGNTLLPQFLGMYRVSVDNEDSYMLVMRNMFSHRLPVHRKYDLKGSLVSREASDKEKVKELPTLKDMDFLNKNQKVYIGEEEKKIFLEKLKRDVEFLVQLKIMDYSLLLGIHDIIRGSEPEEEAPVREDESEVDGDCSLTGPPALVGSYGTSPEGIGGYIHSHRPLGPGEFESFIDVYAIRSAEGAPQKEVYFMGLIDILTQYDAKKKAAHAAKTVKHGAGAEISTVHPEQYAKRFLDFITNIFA
# Method in brief: as §1
# PRKR = target: T7, PRKR (Homo sapiens, UniProt P19525)
# T7 construct: gene EIF2AK2
# Method in brief: as §1
# RIOK3 = RIOK3 (Homo sapiens, UniProt O14730)
# Method in brief: as §1
# [2] = target: T8, RSK2(Kin.Dom.1-N-terminal) (Homo sapiens, UniProt P51812)
# T8 construct: gene RPS6KA3; Kin.Dom.1-N-terminal
# Method in brief: as §1
# TIE2 = target: T9, TIE2 (Homo sapiens, UniProt Q02763)
# T9 construct: gene TEK
# Method in brief: as §1
# TRKA = target: T10, TRKA (Homo sapiens, UniProt P04629)
# T10 construct: gene NTRK1
# Method in brief: as §1
# TSSK1B = TSSK1B (Homo sapiens, UniProt Q9BXA7)
# Method in brief: as §1
smiles,measurement,setting,value
C=C(C)[C@H]1CC=C(C)C(=O)C1 [S-carvone],remaining binding at 100 µM,[1],96%
same,remaining binding at 100 µM,ACVR1,89%
same,remaining binding at 100 µM,CAMK1D,83%
same,remaining binding at 100 µM,CLK4,91%
same,remaining binding at 100 µM,CSNK1E,90%
same,remaining binding at 100 µM,DMPK2,83%
same,remaining binding at 100 µM,"EGFR(L747-T751del,Sins)",78%
same,remaining binding at 100 µM,FGFR4,92%
same,remaining binding at 100 µM,INSRR,84%
same,remaining binding at 100 µM,ITK,87%
same,remaining binding at 100 µM,MEK1,71%
same,remaining binding at 100 µM,MLCK,98%
same,remaining binding at 100 µM,PIK3C2G,62%
same,remaining binding at 100 µM,PIP5K2B,100%
same,remaining binding at 100 µM,PIP5K2C,88%
same,remaining binding at 100 µM,PRKR,74%
same,remaining binding at 100 µM,RIOK3,89%
same,remaining binding at 100 µM,[2],89%
same,remaining binding at 100 µM,TIE2,84%
same,remaining binding at 100 µM,TRKA,82%
same,remaining binding at 100 µM,TSSK1B,95%
